Laboratory results reported in patent publication US9012500B2, “PKC-ε activator” (Nishizaki Bioinformation Research Institute, priority 2010, dated 2015).

How the values were obtained:
hippocampus nerve cells = conditions: non-patent document 3; cited from earlier work
nerve cell = conditions: patent document 2; cited from earlier work
[1] = target: α7 nicotinic acetylcholine receptor (Homo sapiens, UniProt P36544); conditions: α7 nicotinic acetylcholine receptor at the glutamatergic presynaptic terminal as target, non-patent document 5; cited from earlier work
PKC-ε = target: T1, PKC-ε (Homo sapiens, UniProt Q02156); conditions: non-patent document 1; cited from earlier work
T1 sequence (Q02156 1-737): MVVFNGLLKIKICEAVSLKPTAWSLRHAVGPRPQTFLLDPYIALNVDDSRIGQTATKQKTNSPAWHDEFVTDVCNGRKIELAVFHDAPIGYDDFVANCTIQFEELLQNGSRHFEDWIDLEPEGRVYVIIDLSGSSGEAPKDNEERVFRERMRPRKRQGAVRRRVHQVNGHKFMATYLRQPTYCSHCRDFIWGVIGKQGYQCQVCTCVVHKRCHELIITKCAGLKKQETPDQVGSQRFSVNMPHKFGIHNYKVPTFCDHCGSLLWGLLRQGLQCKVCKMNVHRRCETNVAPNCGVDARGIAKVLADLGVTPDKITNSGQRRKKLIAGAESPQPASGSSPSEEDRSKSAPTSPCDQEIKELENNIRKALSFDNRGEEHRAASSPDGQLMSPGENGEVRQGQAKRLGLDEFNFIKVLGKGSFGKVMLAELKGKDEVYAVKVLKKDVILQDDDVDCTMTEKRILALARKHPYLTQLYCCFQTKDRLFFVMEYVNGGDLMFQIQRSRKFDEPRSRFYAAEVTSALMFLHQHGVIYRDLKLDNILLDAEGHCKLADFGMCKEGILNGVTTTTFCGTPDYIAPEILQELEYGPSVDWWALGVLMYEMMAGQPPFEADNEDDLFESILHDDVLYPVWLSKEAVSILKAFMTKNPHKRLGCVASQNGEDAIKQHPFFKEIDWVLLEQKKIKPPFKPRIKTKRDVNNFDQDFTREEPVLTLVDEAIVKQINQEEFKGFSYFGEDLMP

[2] = tested on: senescence-accelerated mouse; conditions: non-patent document 2; cited from earlier work
[3] = tested on: senescence-accelerated mouse (SAMP8); assay: Water maze test in senescence-accelerated mouse (SAMP8); assay type: in vivo; conditions: 8 days
Description: Using senescence-accelerated mouse (accelerated-senescence-prone mice 8: SAMP8) and normal senescence mouse (accelerated-senescence-resistant mice 1: SAMR1) as a control thereof, a water maze test was performed. Male SAMP8 and SAMR1 (22- to 25-week-old) were available from Takeda Pharmaceutical Company Limited (Osaka, Japan). The mice were individually raised in a cage at 23±1° C., 12 hr light/dark cycle (lighted at 7:00 am), and allowed to freely ingest feed (solid feed) and water.
Racemate DCP-LA and 4 optical isomers DCP-LA (α,α-, α,β-, β,α-, β,β-DCP-LA), each dissolved in 0.1 ml polyethylene glycol (PEG), or 0.1 ml PEG were orally administered once a day from the day when the water maze test was started. For each group, the water maze test was performed twice a day for 8 days, and the time required to reach a platform (acquisition latency) was measured.
For the water maze test, a circular plastic water tank (diameter 90 cm, depth 36 cm) was used. The inside of the water tank was completely painted in black, and dark water with India ink was filled up to 20 cm from the bottom (22° C.). A platform (diameter 11 cm) painted in black was placed in water such that it was 1 cm below the water surface. The water tank was placed in a test room, and several marks seen by the mice from the water tank were put thereon. During the test, the position of the marks was not changed. A platform was placed a predetermined position from the equal distance from the center and the end of the water tank, namely, center of one quadrant. At one of the randomly selected 5 points, the mouse was released facing the wall of the water tank, and the time necessary for evacuating on the platform (acquisition latency) was measured. When smoothly evacuated, the mouse was left on the platform for 10 seconds. From the day of water maze test and during the test, polyethylene glycol (PEG) alone or racemate DCP-LA (1 mg/kg), α,α-DCP-LA (0.25 mg/kg), α,β-DCP-LA (0.25 mg/kg), β,α-DCP-LA (0.25 mg/kg), or β,β-DCP-LA (0.25 mg/kg), each dissolved in PEG, was orally administered every day. The water maze test was performed twice a day, and the second test was started at 2 min from the first test. The test was continuously performed for 8 days, and the average value (±SEM) of acquisition latency of continuous 2 days until the mouse reached the platform was calculated (each n=5).

[4] = tested on: amyloid β peptide- or scopolamine-treated rat; conditions: non-patent document 4; cited from earlier work
[5] = tested on: serotonin release from the hypothalamus; assay: Serotonin release from rat hypothalamus sections (HPLC); assay type: cell-based
[6] = tested on: glutamic acid release from the hippocampus; assay: Glutamic acid release from rat hippocampus sections (HPLC); assay type: cell-based
[7] = tested on: dopamine release from the striatum; assay: Dopamine release from rat striatum sections (HPLC); assay type: cell-based
[8] = SAMP8, 0.25 mg/kg orally once a day

α7 nicotinic acetylcholine receptor, sequence (P36544 23-502): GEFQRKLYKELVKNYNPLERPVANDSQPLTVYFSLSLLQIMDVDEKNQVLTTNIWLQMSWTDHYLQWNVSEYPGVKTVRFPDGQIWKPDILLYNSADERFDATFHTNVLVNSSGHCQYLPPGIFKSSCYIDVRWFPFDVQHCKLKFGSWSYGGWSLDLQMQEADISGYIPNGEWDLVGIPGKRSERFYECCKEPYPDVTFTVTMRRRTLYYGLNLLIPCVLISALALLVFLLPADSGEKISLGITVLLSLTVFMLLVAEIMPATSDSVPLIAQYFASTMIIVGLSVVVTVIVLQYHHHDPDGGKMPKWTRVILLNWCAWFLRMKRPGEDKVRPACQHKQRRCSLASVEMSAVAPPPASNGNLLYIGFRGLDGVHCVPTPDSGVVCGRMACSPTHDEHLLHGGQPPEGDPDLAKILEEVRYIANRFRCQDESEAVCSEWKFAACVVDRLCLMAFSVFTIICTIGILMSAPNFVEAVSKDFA

CCCCCC1CC1CC1CC1CCCCCCCC(=O)O (racemic) [racemate DCP-LA, 8-(2-(2-pentyl-cyclopropylmethyl)-cyclopropyl)-octanoic acid]
release of γ aminobutyric acid from hippocampus nerve cells (hippocampus nerve cells): increases release of γ aminobutyric acid
nerve cell death induced by oxidative stress (nerve cell): suppress nerve cell death
hippocampus synaptic transmission [1]: promotes hippocampus synaptic transmission
PKC-ε activation (PKC-ε): selectively and directly activates PKC-ε
cognitive dysfunction of senescence-accelerated mouse [2]: improves cognitive dysfunction
acquisition latency as compared to the PEG administration group ([3]; SAMP8, 1 mg/kg orally once a day): shortened acquisition latency
cognitive dysfunction of amyloid β peptide- or scopolamine-treated rat [4]: improves cognitive dysfunction

CN(C)CCCn1cc(C2=C(c3c[nH]c4ccccc34)C(=O)NC2=O)c2ccccc21 [GF109203X, reference compound]
effect of inhibitor on α,β-DCP-LA enhancement of nicotine-caused serotonin release ([5]; inhibitor 100 nM, FIG. 15): inhibited
effect of inhibitor on α,β-DCP-LA enhancement of nicotine-caused glutamic acid release ([6]; inhibitor 100 nM, FIG. 9): inhibited
effect of inhibitor on α,β-DCP-LA enhancement of nicotine-caused dopamine release ([7]; inhibitor 100 nM, FIG. 12): inhibited

CN1CCCC1c1cccnc1 (centres unmarked) [nicotine, reference compound]
serotonin release, substance alone vs non-treated group [5]: did not show a remarkable difference
glutamic acid release, substance alone vs non-treated group [6]: did not show a remarkable difference
dopamine release, substance alone vs non-treated group [7]: did not show a remarkable difference

CCCCC[C@@H]1C[C@@H]1C[C@H]1C[C@@H]1CCCCCCCC(=O)O [α,α-DCP-LA, 8-[(1S,2R)-2-{(1R,2R)-2-pentylcyclopropylmethyl}-cyclopropyl]octanoic acid]
acquisition latency as compared to the PEG administration group [3, 8]: shortened acquisition latency
acquisition latency as compared to the racemate DCP-LA (1 mg/kg) administration group [3, 8]: significantly shortened acquisition latency

CCCCC[C@H]1C[C@H]1C[C@H]1C[C@@H]1CCCCCCCC(=O)O [β,α-DCP-LA, 8-[(1S,2R)-2-{(1S,2S)-2-pentylcyclopropylmethyl}-cyclopropyl]octanoic acid]
acquisition latency as compared to the PEG administration group [3, 8]: shortened acquisition latency

CCCCC[C@H]1C[C@H]1C[C@@H]1C[C@H]1CCCCCCCC(=O)O [β,β-DCP-LA, 8-[(1R,2S)-2-{(1S,2S)-2-pentylcyclopropylmethyl}-cyclopropyl]octanoic acid]
acquisition latency as compared to the PEG administration group [3, 8]: shortened acquisition latency
